Data published in the NIST ThermoML archive (doi:10.1016/j.jct.2010.12.021).
± gives the expanded uncertainty stated by the source.

Settings: for viscosity / mass density: 101.33 kPa, Liquid; for viscosity: Falling or rolling sphere viscometry; for mass density: Vibrating tube method

Work on `CCCCCC[n+]1cccc2ccccc21.O=S(=O)([N-]S(=O)(=O)C(F)(F)F)C(F)(F)F` [1-hexylquinolinium bis(trifluoromethylsulfonyl)amide] yielded a viscosity (323.15 K) of 100.1 ± 2.5 mPa·s, a mass density (323.15 K) of 1365.94 ± 1.7 kg/m3 and a viscosity (328.15 K) of 77.97 ± 1.4 mPa·s. It also gave a mass density (328.15 K) of 1361.65 ± 1.7 kg/m3, a viscosity (333.15 K) of 61.78 ± 0.76 mPa·s and a mass density (333.15 K) of 1357.35 ± 1.7 kg/m3. For the same compound, the viscosity (338.15 K) was 50.09 ± 0.51 mPa·s, the mass density (338.15 K) was 1353.06 ± 1.6 kg/m3 and the viscosity (343.15 K) was 41.08 ± 0.52 mPa·s. It also gave a mass density (343.15 K) of 1348.77 ± 1.6 kg/m3, a viscosity (348.15 K) of 34.22 ± 0.43 mPa·s and a mass density (348.15 K) of 1344.52 ± 1.6 kg/m3. The Normal melting temperature (Crystal, DTA) was 44.1 ± 0.39 °C.
